The assay deals with Streptococcus oralis spp. tigurinus. Briefly: S. oralis culture test (Alamar Blue fluorescence; proliferation rate relative to a control containing no sample solution). The assay is classed as cell-based. As for the experimental part: S. oralis was cultured in BHI medium (Brain Heart Infusion broth (manufactured by BD)). After the turbidity of the medium at a wavelength of 660 nm was measured, the culture solution was diluted with BHI medium until the turbidity was 0.1. The diluted medium was used as a bacterial solution. As S. oralis, Streptococcus oralis spp. tigurinus was used.
Sample solutions of Examples and Comparative Examples were prepared by dissolving an amino acid and a sugar in the BHI medium. The concentrations of the amino acid in the sample solutions were set at 0 mg/ml or 15 mg/ml and the concentrations of the sugar were set at 20 mg/ml.
To the wells of a 96-well plate, the bacterial solution (100 μl) and a sample solution (100 μl) were added. The 96-well plate was subjected to culturing performed at 37° C. in anaerobic conditions for 24 hours. After completion of the culture, the supernatant was removed and 110 μl of an Alamar Blue solution (manufactured by Invitrogen) diluted 11-fold with phosphate buffer saline (PBS), was added. Fluorescence intensity was measured at an excitation wavelength of 545 nm and a fluorescence wavelength of 590 nm. A relative value thereof to the fluorescence intensity of a control containing no sample solution was calculated as the proliferation rate of S. oralis. The proliferation rate calculated was evaluated based on the following evaluation criteria. The results are shown in Table 1. • A: 10 or more • B: 5 or more and less than 10 • C: less than 5 […]
The proliferation rate of S. oralis in the case in which galactose was used as the sugar and citrulline was used as the amino acid, was measured. The test method was the same as in Test 1. The concentrations of galactose and citrulline in sample solutions and the measurement results of proliferation rates are shown in Table 3. In Test 3, the concentrations of galactose in sample solutions were set at 0 mg/ml or 2 mg/ml and the concentrations of citrulline were set at 0.5 to 3.0 mg/ml.
The proliferation rate of S. oralis was measured in the case in which 2′-fucosyllactose was used as the sugar and arginine was used as the amino acid. The test method was the same as in Test 1. The concentrations of 2′-fucosyllactose and arginine in sample solutions and the measurement results of proliferation rates are shown in Table 4. […]

For the compound `N=C(N)NCCC[C@H](N)C(=O)O` [Comparative Example 1, Arginine], where the note is “Test 1”, the “Effect of promoting proliferation of S. oralis (in words)” value (“Effect” below) is on record as “not obtained”. The “Evaluation of proliferation rate” value (Test 1, sample solution in BHI medium: sugar 20 mg/ml, amino acid 0 or 15 mg/ml, 37° C., anaerobic, 24 hours) was “C (less than 5)”.
Turning to `NC(=O)NCCC[C@H](N)C(=O)O` [Comparative Example 8, Citrulline], the “Effect” value (Test 3, citrulline 0.5 to 3.0 mg/ml, galactose 0 or 2 mg/ml) is “the effect of proliferating S. oralis was promoted but the level of the proliferation promotion effect decreased as the concentration of citrulline increased”. Moreover, the Proliferation rate by setting is: (Test 3, galactose 0 mg/ml, citrulline 0.5 mg/ml) 3.8; (Test 3, galactose 0 mg/ml, citrulline 1.0 mg/ml) 2.7; (Test 3, galactose 0 mg/ml, citrulline 2.0 mg/ml) 1.8.
For the compound `C[C@@H]1O[C@@H](O[C@H]2[C@H](O[C@H]3[C@H](O)[C@@H](O)C(O)O[C@@H]3CO)O[C@H](CO)[C@H](O)[C@@H]2O)[C@@H](O)[C@H](O)[C@@H]1O` (some centres unmarked) [Comparative Example 9, 2′-Fucosyllactose], the Proliferation rate runs as follows: (Test 4, 2′-fucosyllactose 1 mg/ml, arginine 0 mg/ml) 1.0; (Test 4, 2′-fucosyllactose 2 mg/ml, arginine 0 mg/ml) 1.5; (Test 4, 2′-fucosyllactose 3 mg/ml, arginine 0 mg/ml) 0.9; (Test 4, 2′-fucosyllactose 4 mg/ml, arginine 0 mg/ml) 0.6. Moreover, the “Effect” value (Test 4, 2′-fucosyllactose 1 to 4 mg/ml, arginine 0 or 1.5 mg/ml) is reported as “scarcely observed”.

The record behind these values is patent publication US20240058251A1, “Composition for Oral Cavity” (SUNSTAR SUISSE SA, priority 2020, published 2024).
